Among the data in a melting point compilation (Tetko et al.) are melting point values, retold here.

A word on the melting point: it is the temperature, or range, at which the solid turns liquid. `CC(=O)N1C(=O)c2ccccc2C1=O`: the melting point turned out to be 137 °C.

`OC(O)C(Cl)(Cl)Cl`: the melting point is 57 °C.

Take `COc1cc(C(=O)c2cccc(C)c2)c([N+](=O)[O-])cc1OC`: the melting point is 121 °C.

The compound `Cc1c(C(N)=O)[nH]c2ccccc12` came in with a melting point of 170 to 172 °C.

Turning to `CCCCOC(=O)c1ccccc1C(=O)OCCCC`, the melting point was -35 °C.

For `CC(=O)n1c2ccccc2c2cc3ccccc3nc21`, the melting point came out at 187 °C.

With `On1nnc2ccc(Cl)cc21`, the melting point was determined as 197 °C.

Consider `CSc1ncc(Br)c(C(=O)O)n1`, for which the melting point lay in the range of 156 to 157 °C.

Compound `O=C(O)C1CSC(c2ccccc2)N1` (mixture of isomers) registered a melting point of 158 to 162 °C.

As to `Cc1cc(=O)oc2cc(O)ccc12`, the melting point was found to be 194 °C.

`CCCCSCCC(N)C(=O)O` (racemic) registered a melting point of 238 to 243 °C.

`N#Cc1ccc(S(=O)(=O)Cl)c(Cl)c1` gave a melting point of 103 °C.

In turn, `Nc1ccc(Br)c(F)c1` had a melting point of 68 °C.

`Brc1ccc2cc(Br)ccc2c1` returned a melting point of 165 °C.

As for `Cc1cc(=O)[nH]c(=S)[nH]1`, the melting point was 317 to 318 °C.

On to `N#CC#CC#N`, for which the melting point turned out to be 20.5 °C.

Consider `O=C1CCc2ccccc2N1`, for which the melting point was determined as 164 °C.

As for `CC1OC(OC2C=C3CCC4C(CCC5(C)C(c6ccc(=O)oc6)CCC45O)C3(C)CC2)C(O)C(O)C1O` (centres undefined), the melting point is 221 °C.

As for `Fc1c(F)c(F)c(I)c(F)c1F`, the melting point is -29 °C.

`Clc1cc(Cl)nc(Cc2ccccc2)n1` registered a melting point of 56 to 57 °C.

`O=C(O)C1Cc2ccccc2N1C(=O)OCc1ccccc1` (centres undefined) yielded a melting point of 103 to 105 °C.

For `CCC(C)(CC)OC(N)=O`, the melting point came to 56 °C.

Regarding `Cc1ccc(Nc2ccc(Nc3ccc(C)cc3)c3c2C(=O)c2ccccc2C3=O)cc1`, the melting point was determined as 218 °C.

`Cc1cccc(NC(=O)C(C(F)(F)F)C(F)(F)F)c1` gave a melting point of 175 °C.

With `O=C1c2nonc2CCC1Br` (centres undefined), the melting point lay within 65 to 68 °C.

Take `Nc1cccnc1N`: the melting point lay within 114 to 116 °C.

`Cc1cc(O)nc2ccccc12` returned a melting point of 226 °C.

For `CC(Oc1cc(Cl)c(Cl)cc1Cl)C(=O)O` (centres undefined), the melting point was 182 °C.

In turn, `FC1(F)C(F)(F)C(F)(F)C2(F)C(F)(C1(F)F)C(F)(F)C(F)(F)C1(F)C(F)(F)C(F)(F)C(F)(F)C(F)(F)C12F` (centres undefined) returned a melting point of -20 °C.

For the compound `Cc1ccc(Br)cc1O`, the melting point amounted to 79 °C.

`Cc1cc2c(C#N)c3ccc4ccccc4n3c(=O)c2c(C)n1` had a melting point of 243 °C.

As to `Cc1cc(C(=O)O)c(-c2ccccc2)o1`, the melting point is 145 to 147 °C.

`CCC(CO)NC(=O)C1C=C2c3cccc4c3c(cn4C)CC2N(C)C1` (centres undefined) had a melting point of 195 °C.

As for `O=C1OC(c2ccccc2)c2ccccc21` (centres undefined), the melting point was found to be 117 °C.

The compound `Cc1ccc(S(C)(=O)=O)cc1[N+](=O)[O-]` showed a melting point of 121 °C.

Compound `O=C1CC2CCC1C2` (centres undefined) had a melting point of 95 °C.

For `O=S1CCC1`, the melting point was found to be 31.5 °C.

In turn, `COc1cccc(C=Nc2n[nH]c(N=Cc3cccc(OC)c3O)c2Cc2ccc(Cl)cc2)c1O` came in with a melting point of 261 to 263 °C.

On to `C=Cc1ccc(C)cc1C`, for which the melting point is -64 °C.

Regarding `COc1cc2ccc(=O)oc2cc1OC`, the melting point was 146 °C.

In turn, `Oc1cc(F)c(F)c(F)c1` displayed a melting point of 54 °C.

For the compound `COc1cc(N=C=S)c(OC)cc1Cl`, the melting point lay within 84 to 86 °C.

Compound `CC(C)N(C(=O)SCC(Cl)=CCl)C(C)C` registered a melting point of 25 °C.

`CC12CCC3C(CCC4CC(O)CCC43C)C1CCC2=O` (centres undefined): the melting point was found to be 185 °C.

Turning to `CC(=O)Nc1ccc(C(C)=O)cc1Br`, the melting point came out at 140 °C.

For `OCc1csc(-c2cccnc2)n1`, the melting point lay in the range of 120 to 121 °C.

`O=C(Nc1ccc([N+](=O)[O-])cc1)C(F)(F)C(F)(F)C(F)(F)C(F)(F)C(F)(F)C(F)(F)C(F)(F)C(F)(F)F`: the melting point is 119 °C.

As for `CC(=O)Nc1ccc(Br)cc1F`, the melting point is 156 °C.

`Cc1nsc(-c2ccc(Cl)cc2)n1` yielded a melting point of 81 to 83 °C.

`COc1ccc(C2C(C#N)=C(N)Oc3cc(C)n(CCc4ccccc4)c(=O)c32)cc1` (centres undefined) yielded a melting point of 264 °C.

For the compound `CCc1ccc(CCOc2ccc(CC3SC(=O)NC3=O)cc2)nc1` (centres undefined), the melting point amounted to 184 °C.

In turn, `C=C(C)C(N)=O` gave a melting point of 110 °C.

For `O=c1ccn(C2CC(O)C(CO)O2)c(=O)[nH]1` (centres undefined), the melting point turned out to be 166 °C.

For `O=C(O)c1cnc2ccccc2n1`, the melting point worked out at 206 °C.

Regarding `CC(C)CCNCCC(C)C`, the melting point is -44 °C.

`O=S(=O)(O)CCCN1CCOCC1` returned a melting point of 284 °C.

As to `CCOC(=O)C1=C(C)NC(=O)NC1C` (centres undefined), the melting point lay within 189 to 190 °C.

The compound `CC(=O)OC1OC(=O)c2ccccc21` (centres undefined) displayed a melting point of 71 °C.

In the case of `Brc1ccc(Oc2c(Br)cccc2Br)c(Br)c1`, the melting point fell in the range of 96 to 97 °C.

With `CCCOc1ccc(C(N)=NO)cc1`, the melting point fell in the range of 105 to 106 °C.

The compound `OCc1ccc(SC(F)(F)F)cc1` showed a melting point of 52 °C.

Regarding `Cc1nnsc1C(=O)O`, the melting point is 185 °C.

For the compound `C(=CC=Cc1ccccc1)C=Cc1ccccc1`, the melting point lay within 199 to 203 °C.

For `CC(=Nc1c(O)ccc2ccccc12)c1c(O)c2ccccc2n(-c2ccccc2)c1=O`, the melting point amounted to 219 °C.

Consider `Nc1ccc(O)cc1F`, for which the melting point is 139 °C.

The compound `NNc1c(F)cc(F)cc1F` returned a melting point of 99 °C.

For `CCNc1cccc(O)c1`, the melting point was 62 °C.

As to `CS(=O)(=O)c1csc(C(=O)Cl)c1Cl`, the melting point lay within 181 to 185 °C.

With `Cc1cc(C(F)(F)F)n2nc(N)c(/N=N/c3ccccc3)c2n1`, the melting point was 201 to 203 °C.

`CC(=O)Nc1ccc(O)cc1` gave a melting point of 169 °C.

For the compound `NNC(=O)CCCO`, the melting point is 93 °C.

In turn, `COc1ccc(C(=O)C2=NN(c3ccccc3)C3C(=O)N(c4cc(Cl)ccc4Cl)C(=O)C23)cc1` (centres undefined) gave a melting point of 240 °C.

In turn, `O=C(Cl)c1ccc(Cl)nc1` yielded a melting point of 50 °C.

As to `CCOC(=O)C1(c2ccccc2)CCN(C)CC1`, the melting point was found to be 270 °C.

`Clc1ccc2c(c1)c1cc(Cl)ccc1n2CC1CO1` (centres undefined) had a melting point of 143 to 144 °C.

Compound `CC(C)CC1(NC(=O)c2ccccc2)COCOC1=O` (racemic) showed a melting point of 100 to 102 °C.

In the case of `O=C(O)c1ccncc1C(=O)O`, the melting point was found to be 262 °C.

`CN(C)CCN1C(=O)c2ccccc2Nc2cc(Cl)ccc21` came in with a melting point of 166 °C.

Compound `Cc1ccc([C@H]2O[C@@H](c3ccc(C)cc3)[C@H](C)C(=O)[C@@H]2C)cc1` came in with a melting point of 140 °C.

Regarding `CCCCOc1ccc(CC(=O)NO)cc1`, the melting point is 153 °C.

`CCCCCCCCCCCCCCCCOc1ccc(N)cc1` returned a melting point of 60 °C.

On to `NC(=O)CCC(=O)O`, for which the melting point came out at 155 °C.

As to `CCC(C)(S(=O)(=O)CC)S(=O)(=O)CC`, the melting point was determined as 76 °C.

The compound `CC1(C)O[C@@H]2[C@H](O1)[C@@H]1C[C@H]2NC1=O` registered a melting point of 150 to 152 °C.

Consider `Cc1ccc(-n2c(C=Cc3ccc([N+](=O)[O-])cc3)nc3cc([N+](=O)[O-])ccc32)cc1`, for which the melting point was found to be 267 °C.

Compound `O=C1C(c2ccccc2)=C(c2ccccc2)C(c2ccccc2)=C1c1ccccc1` showed a melting point of 217 to 222 °C.

`Cc1cc2c(c(C)c1C)C(=O)C2` yielded a melting point of 103 °C.

`O=[N+]([O-])c1cc(Br)cc(Br)c1O` displayed a melting point of 118 to 119 °C.

Take `COc1ccc(OC)c(S(=O)(=O)Cl)c1`: the melting point fell in the range of 115 to 116 °C.

The compound `CCCCCCCCCCCCC#CC#CCO` showed a melting point of 57 to 59 °C.

In the case of `N#Cc1nc[nH]c1C(N)=O`, the melting point was 276 to 278 °C.

As to `CN1CCN(c2ccc(C(=O)O)cc2)CC1`, the melting point is 270 °C.

Compound `C[C@H](O)C(N)=O` had a melting point of 51 to 55 °C.

As for `Cc1cc(=O)n(-c2ccccc2)[nH]1`, the melting point came to 128 °C.

Regarding `CC1=CC(=O)CCC1`, the melting point is -21 °C.

Compound `COc1ccc(O)c2ccccc12` yielded a melting point of 129 °C.

The compound `BrCc1ccccc1I` yielded a melting point of 56 °C.

As to `CCC12CCCN3CCC4(c5cccc(OC)c5N(C(C)=O)C4CC1)C32` (centres undefined), the melting point was determined as 208 °C.

In the case of `Cc1ccnc(Cl)c1[N+](=O)[O-]`, the melting point is 53 °C.

Compound `CNc1nnc(S)s1` displayed a melting point of 190 to 193 °C.

Compound `NC(N)=NCCCCCCCCNCCCCCCCCN=C(N)N` displayed a melting point of 60 °C.

In turn, `CC(C)CCC#N` came in with a melting point of -51 °C.

`O=C(NCCBr)c1cc([N+](=O)[O-])cc([N+](=O)[O-])c1`: the melting point was determined as 140 °C.

Compound `Cc1nc(-c2ccc(C(=O)O)cc2)cs1` returned a melting point of 263 to 268 °C.

On to `Nc1ccc(F)c(F)c1`, for which the melting point came to 21 °C.

With `O=C=Nc1ccc(Br)cc1Cl`, the melting point is 71 to 75 °C.

`O=S(=O)(O)CCN1CCN(CCS(=O)(=O)O)CC1` had a melting point of 300 °C.

For the compound `CCN1CCCC1CNC(=O)c1cc(S(=O)(=O)CC)c(N)cc1OC` (centres undefined), the melting point was found to be 126 °C.

On to `O=[N+]([O-])c1cccc(C=Cc2ccccc2)c1`, for which the melting point is 102 °C.

The compound `Nc1ccccc1NC(C(=O)Nc1ccccc1)(c1ccccc1)c1ccccc1` yielded a melting point of 160 °C.

For `COCc1ccc(O)c([N+](=O)[O-])c1`, the melting point was found to be 123 °C.

For `O=C(O)c1cc(F)cc2c1OCOC2`, the melting point was in the range of 180 to 182 °C.

In turn, `O=C(C=Cc1ccccc1)n1ccnc1` registered a melting point of 127 to 133 °C.

For `O=Cc1cccc(CBr)c1`, the melting point was 49 to 51 °C.
